Assay results as given in patent publication EP3892734B1, “SCREENING METHODS AND THERAPEUTIC APPLICATIONS BASED ON BACTERIAL MOTILITY INHIBITION” (Ludwig-Maximilians-Universität München, priority 2020, dated 2021).
Converted amounts (≈) assume the structure as drawn. “And” between values parts separate entries of the source, which are not always exact repeats. Equal values may be shown once. “Also recorded” adds a separate entry of the source. Read-outs that look alike come from different tables or passages of the source.

Columns and labels:
[1] = tested on: H. pylori flaA-luciferase reporter strain N6; assay: microbe, parasite or virus in culture; format: cell-based, Helicobacter pylori; conditions: for inhibitory activity in luciferase reporter assay: result in words; for Weak activity (% of non-inhibited control): flaA-luciferase reporter strain N6, IC50 not determined
Source text: The H. pylori flaA promoter was fused with a luciferase operon (luxAB) from Vibrio harveyi in a H. pylori suicide plasmid (Niehus, Ye, Suerbaum, & Josenhans, 2002). The flaA reporter fusion was recombined into the H. pylori chromosome and the resulting strain tested to be strongly luminescence positive. The reporter strain (N6 flaA-lux4B) activated luminescence to about 40,000 to 60,000 counts per second using luciferase substrate at an OD600 of 0.8 (mid-log phase) in liquid culture. The negative control value of a non-reporter strain or reporter strain without luminescence substrate was close to zero. […] The Z-Factor (Zhang et al., 1999) determined for the assay with various bacterial inhibitors measured in quadruplicates or triplicates was routinely between 0.6 and 0.7, with a confidence interval of 95%.
H. pylori luminescence reporter strains were passaged on blood agar plates less than 22 hours prior to the start of the experiment. The passage number for these assays was not higher than five to preserve the strain's properties and genetic stability. Luciferase reaction buffer was prepared as follows: 50 mM disodium phosphate (Na2HPO4) and 2% BSA were dissolved in HPLC water, filter sterilized, aliquoted and frozen at - 20°C.
Bacteria were harvested in brain-heart infusion medium (BHI, 3% yeast extract with 5% horse serum added) and adjusted to an OD600 of 0.8 at room temperature. 50 µl of the bacterial suspension were added per well of a 96 well plate (non-binding, Greiner Bio-One 655901). 2 µl of each of the test compounds (provided as a 10 mM DMSO solution) were added to the sample wells. The same amount of pure, diluted DMSO was added to the control wells for a concentration of a maximum of 4% DMSO per well, since higher concentrations will interfere with metabolic functions of H. pylori and cause false negative results. The microwell plate was incubated inside a sterile sealed PM Gas Bag (BIOLOG #3032) together with a CampyGen Compact pack (Oxoid) to generate microaerobic conditions at 37°C and with shaking at 175 rpm for 4 h.
Shortly before taking the measurement, the luciferase substrate was prepared by diluting the luminescence substrate decanal (10% stock, Sigma Aldrich) at a 1 :2,000 dilution in luciferase reaction buffer. 60 µl of the substrate were added per well of a white 96 microwell plate (Thermo Scientific #236105) without the lid.
For the final luciferase measurement, 10 µl of bacterial solution were transferred with the epMotion 96 (Eppendorf) simultaneously to the wells containing the luciferase substrate and incubated on a microwell plate shaker for 10 s to lyse the bacteria. The measurements were recorded with a Perkin Elmer Victor 3/WNallac 1420 plate reader (luminometry, measurement time: 0.5 sec) and integrated to counts per sec. For the background measurement, 10 µl sterile medium containing 4% DMSO was added to the wells. For each measurement, at least four luciferase reporter positive control wells (without inhibitory compound) and four negative control wells (background without bacteria) were run on the same day and under the same assay conditions in parallel.

H. pylori = assay: therapeutic treatment in chronic H. pylori mouse infection model (cfu counts, cagL PCR); format: in vivo, C57B/L6 mice
Protocol: 6-8 weeks old specific pathogen-free C57B/L6 mice were obtained from Charles River Laboratories. They were acclimatized to the new surroundings for one week before starting the assays. For the whole duration of the experiment, mice had access to sterile chow and sterile water ad libitum. In week one of the experiment, H. pylori was administered at 3×10^8 bacteria per mouse per inoculum (100 µl) on two days with one day of break in between. The proof-of-principle treatment was started two weeks after the end of the inoculation week, assuming a stable infection at this time point. The mice were treated in separate groups (8-14 animals per group), as outlined in the results, with compound(s), antibiotic (metronidazole at 14.3 mg/kg/day), a combination of both antibiotic and compound (for concentrations, see Results), or mock-treated once daily over seven consecutive days by intra-gastric gavage. After the treatment week, the mice were kept for another two weeks under normal housing and feeding conditions with sterilized chow and sterile water ad libitum. At the end of the assay period (week seven), the mice were necropsied by cervical dislocation under CO2 anesthesia. The animal experiments were authorized under German federal law by the LAVES (Lower Saxony Government Authority).
Then, BL2 was further tested for therapeutic efficacy in a mouse model of chronic H. pylori infection (Fig. 5). Six groups of mice (10 mice per group in each of the four infected and/or treated groups, and six mice in both of the control groups) were established in this mouse treatment trial. For the treatment groups, mice were infected in week one (using ca. 3×10^8 bacteria per animal; Methods), and the chronic infection was manifested for two more weeks. The once-daily treatment (intragastric gavage) started in week four on seven consecutive days. For the treatment groups, three H. pylori-infected groups were evaluated in parallel. One dose of treatment was given daily.
Group one was treated with metronidazole (14.3 mg/kg/day) only, an established anti-H. pylori antibiotic. The antibiotic concentration corresponds to concentrations routinely used in human treatment. Group two was treated with metronidazole (dosed at 14.3 mg/kg/day) and BL2 (10 mg/kg/day) in combination, and group three received BL2 (10 mg/kg/day) only. In addition, one infected and mock-treated group was kept as positive control, and two mock-infected groups were set aside, one for administering BL2 only (10 mg/kg/day; microbiota compound control) and one which was mock-infected and mock-treated (microbiota null control).
The read-out of successful treatment was the reduction of colony-forming units (cfus) of bacteria in infected and treated mice, over infected, non-treated, mice, at the end of the experiment. […] All mice in the infected positive control group were colonized (both cfu counts and PCR-positive), although the cfu counts in three positive animals were rather low.

H. pylori N6 = assay: vitality / metabolic (respiratory inhibition) counter-screen; format: cell-based, Helicobacter pylori; conditions: > 100% indicates no inhibition
[2] = Helicobacter pylori, H. pylori flaA-luciferase reporter strain N6, Table 6
[3] = H. pylori flaA-luciferase reporter strain N6, Table 6

Compound	IC50 [1, 2] [µg/mL]	inhibitory activity in luciferase reporter assay [1]	other results
Cn1c(CSC(=N)N)c(Br)c(=O)n1-c1ccc(-c2ccccc2)cc1 [DJ-8, (1-([1',1"-biphenyl]-4'-yl)-4-bromo-2-methyl-5-oxo-2,5-dihydro-1H-pyrazol-3-yl)methyl carbamimidothioate]	< 4.5	–	–
carbonyl cyanide m-chlorophenyl hydrazine [CCCP, reference compound]	–	inhibited the luminescence reporter activity	–
CCn1c(CS)c(Br)c(=O)n1-c1ccccc1 [DJ-12]	< 4.5	–	–
Cc1ccc(-n2c(=O)c(Br)c(CSCc3c(Br)c(=O)n(-c4ccc(C)cc4)n3C)n2C)cc1 [DJ-14, 5,5'-(thiobis(methylene))bis(4-bromo-1-methyl-2-(p-tolyl)-1,2-dihydro-3H-pyrazol-3-one)]	–	detectable yet weaker inhibitory activity	Weak activity (% of non-inhibited control) [1]: Weak activity (+/- 90 % of control) (IC50 not determined)
Cn1c(CSC(=N)N)c(Br)c(=O)n1-c1ccc(Cl)cc1 [DJ-9, (4-bromo-1-(4'-chlorophenyl)-2-methyl-5-oxo-2,5-dihydro-1H-pyrazol-3-vl)methyl carbamimidothioate]	< 4.5	–	–
CC(C)c1ccc(-n2c(=O)c(Br)c(CSC(=N)N)n2C)cc1 [DJ-7, (4-bromo-1-(4'-isopropylphenyl)-2-methyl-5-oxo-2,5-dihydro-1H-pyrazol-3-vl)methyl carbamimidothioate]	< 4.5	–	–
CCn1c(CSC(=N)N)c(Br)c(=O)n1-c1ccccc1 [DJ-11]	10.6 (≈ 29.7 µM)	–	–
CC1(C)S[C@@H]2[C@H](NC(=O)[C@H](N)c3ccccc3)C(=O)N2[C@H]1C(=O)O [ampicillin, reference compound]	–	did not alter the readings in the luciferase reporter assay	–
Cc1cc(C)cc(-n2c(=O)c(Br)c(CSC(=N)N)n2C)c1 [DJ-6, (4-bromo-1-(3',5'-dimethylphenyl)-2-methyl-5-oxo-2,5-dihydro-1H-pyrazol-3-yl)methyl carbamimidothioate]	< 4.5	–	–
Cc1ncc([N+](=O)[O-])n1CCO [metronidazole, reference compound]	–	–	reduction of colony-forming units (cfus) / bacterial loads in stomach (H. pylori; BL2 10 mg/kg/day, metronidazole 14.3 mg/kg/day, once daily, 7 days, intragastric gavage, versus infected control): significantly reduced bacterial counts; also recorded: left no bacterial counts; gene-specific (cagL) PCR signal in stomach homogenates (H. pylori; two weeks post-treatment): strong residual bacterial load; also recorded: all mice still had detectable specific bacterial (PCR) signal; also recorded: still readily detectable by PCR
Cc1ccc(-n2c(=O)c(Br)c(CSC(=N)N)n2C)cc1 [DJ-5, (4-bromo-2-methyl-5-oxo-1-(p-tolyl)-2,5-dihydro-1H-pyrazol-3-yl)methyl carbamimidothioate]	< 4.5	–	–
C=C(C)[C@H]1Cc2c(ccc3c2O[C@@H]2COc4cc(OC)c(OC)cc4[C@@H]2C3=O)O1 [rotenone, reference compound]	–	inhibited the luminescence reporter activity	–
Cn1c(CN)c(Br)c(=O)n1-c1ccccc1 [DJ-4, 5-(aminomethyl)-4-bromo-1-methyl-2-phenyl-1,2-dihydro-3H-pyrazol-3-one]	–	No inhibitory activity was detectable	IC50 [1, 3]: No IC50
Cn1c(CS)c(Br)c(=O)n1-c1ccccc1 [DJ-2, 4-bromo-5-(mercaptomethyl)-1-methyl-2-phenyl-1,2-dihydro-3H-pyrazol-3-one]	–	–	IC50 [1, 3]: 0.44 µg/mL (≈ 1.47 µM)
Cn1c(CSCCO)c(Br)c(=O)n1-c1ccccc1 [DJ-3, 4-bromo-5-(((2-hydroxyethyl)thio)methyl)-1-methyl-2-phenyl-1,2-dihydro-3H-pyrazol-3-one]	–	No inhibitory activity was detectable	IC50 [1, 3]: No IC50
Cn1c(CSC(=N)N)c(Br)c(=O)n1-c1ccc(C(F)(F)F)cc1 [DJ-10, (4-bromo-2-methyl-5-oxo-1-(4'-(trifluoromethyl)phenyl)-2,5-dihvdro-1H-pyrazol-3-yl)methyl carbamimidothioate]	10.8 (≈ 26.5 µM)	–	–
Cn1c(CSC(=N)N)c(Br)c(=O)n1-c1ccccn1 [DJ-13]	–	detectable yet weaker inhibitory activity	Weak activity (% of non-inhibited control) [1]: Weak activity (+/- 50 % of non-inhibited control) (IC50 not determined)
Cn1c(CSC(=N)N)c(Br)c(=O)n1-c1ccccc1 [DJ-1, (4-bromo-2-methyl-5-oxo-1-phenyl-2,5-dihydro-1H-pyrazol-3-yl)methyl carbamimidothioate]	< 4.5	–	Metabolic assay (% of control) (H. pylori N6): 107,7 % of control; Luciferase assay (% of control) ([1]; H. pylori screen): 1,4 % of control; IC50 ([1]; Helicobacter pylori, read-out: IC50 (luciferase assay), luciferase flagellar reporter assay, Table 3): 3.05 µg/mL and 10.3 µM
